ChEMBL document CHEMBL3885881, “DrugMatrix”

Species: Rattus norvegicus
Assay: DrugMatrix - Regimen: Daily Repeat
Assay type: toxicity, organism-based, Sprague-Dawley
Set-up: regimen Daily Repeat, gender Male, age 6-8 weeks
Conditions: in vivo, po, 30 mg/kg, route oral GAVAGE, dose level Low, vehicle .5 % CMC; for ABSOLUTE BASOPHIL / ABSOLUTE EOSINOPHIL / ABSOLUTE LYMPHOCYTE / ABSOLUTE MONOCYTE / ABSOLUTE SEGMENTED NEUTROPHIL / BASOPHIL / EOSINOPHIL / ERYTHROCYTE COUNT / HEMATOCRIT / HEMOGLOBIN / LEUKOCYTE COUNT / LYMPHOCYTE / MEAN CORPUSCULAR HEMOGLOBIN / MEAN CORPUSCULAR HEMOGLOBIN CONCENTRATION / MEAN CORPUSCULAR VOLUME / MONOCYTE / NEUTROPHIL / NUCLEATED RED BLOOD CELLS / PLATELET COUNT: tissue Blood; for ALANINE AMINOTRANSFERASE / ALBUMIN / ALKALINE PHOSPHATASE / ASPARTATE AMINOTRANSFERASE / BLOOD UREA NITROGEN / CARBON DIOXIDE / CHLORIDE / CHOLESTEROL / CREATINE PHOSPHOKINASE / CREATININE / GLUCOSE / LACTATE DEHYDROGENASE / LIPASE / PHOSPHORUS / POTASSIUM / SODIUM / TOTAL BILIRUBIN / TOTAL PROTEIN / URIC ACID: tissue Plasma

## COc1cc(OC)c(C(=O)CCCN2CCCC2)c(OC)c1 [BUFLOMEDIL]
72 h, time 3 day
  ABSOLUTE BASOPHIL: 0 CELLS/uL
  ABSOLUTE EOSINOPHIL: 0 CELLS/uL
  ABSOLUTE LYMPHOCYTE: 12859.33 CELLS/uL
  ABSOLUTE MONOCYTE: 198 CELLS/uL
  ABSOLUTE SEGMENTED NEUTROPHIL: 1176 CELLS/uL
  BASOPHIL: 0%
  EOSINOPHIL: 0%
  ERYTHROCYTE COUNT: 5.25 x10E6/uL
  HEMATOCRIT: 33.97%
  HEMOGLOBIN: 14.13 G/DL
  LEUKOCYTE COUNT: 14.23 x10E3/uL
  LYMPHOCYTE: 90%
  MEAN CORPUSCULAR HEMOGLOBIN: 25.77 pg
  MEAN CORPUSCULAR HEMOGLOBIN CONCENTRATION: 39.67 G/DL
  MEAN CORPUSCULAR VOLUME: 64.9 fL
  MONOCYTE: 1.33%
  NEUTROPHIL: 8.67%
  NUCLEATED RED BLOOD CELLS: 0 /100WBC
  PLATELET COUNT: 1306 x10E3/uL
  ALANINE AMINOTRANSFERASE: 53 u/L
  ALBUMIN: 4.17 G/DL
  ALKALINE PHOSPHATASE: 441 u/L
  ASPARTATE AMINOTRANSFERASE: 83.33 u/L
  BLOOD UREA NITROGEN: 16.67 mg/dL
  CARBON DIOXIDE: 27.67 mmol/L
  CHLORIDE: 98 MEQ/L
  CHOLESTEROL: 75.33 mg/dL
  CREATINE PHOSPHOKINASE: 360 u/L
  CREATININE: 0.1 mg/dL
  GLUCOSE: 146 mg/dL
  LACTATE DEHYDROGENASE: 180.33 u/L
  LIPASE: 9.33 u/L
  PHOSPHORUS: 13.93 mg/dL
  POTASSIUM: 6.77 MEQ/L
  SODIUM: 143.3 MEQ/L
  TOTAL BILIRUBIN: 0.23 mg/dL
  TOTAL PROTEIN: 5.9 G/DL
  URIC ACID: 1.47 mg/dL
120 h, time 5 day
  ABSOLUTE BASOPHIL: 0 CELLS/uL
  ABSOLUTE EOSINOPHIL: 0 CELLS/uL
  ABSOLUTE LYMPHOCYTE: 10085.67 CELLS/uL
  ABSOLUTE MONOCYTE: 133.67 CELLS/uL
  ABSOLUTE SEGMENTED NEUTROPHIL: 980.67 CELLS/uL
  BASOPHIL: 0%
  EOSINOPHIL: 0%
  ERYTHROCYTE COUNT: 5.03 x10E6/uL
  HEMATOCRIT: 33.2%
  HEMOGLOBIN: 13.3 G/DL
  LEUKOCYTE COUNT: 11.2 x10E3/uL
  LYMPHOCYTE: 91.33%
  MEAN CORPUSCULAR HEMOGLOBIN: 26.47 pg
  MEAN CORPUSCULAR HEMOGLOBIN CONCENTRATION: 40.07 G/DL
  MEAN CORPUSCULAR VOLUME: 66.07 fL
  MONOCYTE: 1%
  NEUTROPHIL: 7.67%
  NUCLEATED RED BLOOD CELLS: 0 /100WBC
  PLATELET COUNT: 833 x10E3/uL
  ALANINE AMINOTRANSFERASE: 55.67 u/L
  ALBUMIN: 4.23 G/DL
  ALKALINE PHOSPHATASE: 308.33 u/L
  ASPARTATE AMINOTRANSFERASE: 81 u/L
  BLOOD UREA NITROGEN: 17.33 mg/dL
  CARBON DIOXIDE: 26.33 mmol/L
  CHLORIDE: 102.33 MEQ/L
  CHOLESTEROL: 64 mg/dL
  CREATINE PHOSPHOKINASE: 354.67 u/L
  CREATININE: 0.13 mg/dL
  GLUCOSE: 152.33 mg/dL
  LACTATE DEHYDROGENASE: 110.67 u/L
  LIPASE: 12 u/L
  PHOSPHORUS: 12.5 mg/dL
  POTASSIUM: 6.61 MEQ/L
  SODIUM: 143.1 MEQ/L
  TOTAL BILIRUBIN: 0.2 mg/dL
  TOTAL PROTEIN: 5.97 G/DL
  URIC ACID: 2.27 mg/dL
